# In ChEMBL document CHEMBL1201862, “PubChem BioAssay data set” (2004):
#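 96-well plates; 48 h exposure; 5 concentrations. Endpoints by linear interpolation between flanking doses. Not reached: highest tested concentration assigned. Here, GI50 denotes the concentration required for 50% inhibition of growth.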 Activity calls are given as the source filed them. No stated cut-off is given here; in the data, active = GI50 up to about 1.1 µM and inactive = higher.
# How the values were obtained:
# Experiment in all cases: NCI anticancer screen, dose series, 48 h
# SF-268 = test system: SF-268
# OVCAR-5 = test system: OVCAR-5
# DU-145 = test system: DU-145
# PC-3 = test system: PC-3
# A498 = test system: A498
# 786-0 = test system: 786-0
# CCRF-CEM = test system: CCRF-CEM
# HOP-92 = test system: HOP-92
# HCT-116 = test system: HCT-116
# HOP-62 = test system: HOP-62
# MDA-MB-435 = test system: MDA-MB-435
# SF-539 = test system: SF-539
# OVCAR-3 = test system: OVCAR-3
# A549 = test system: A549
# SK-MEL-5 = test system: SK-MEL-5
# NCI/ADR-RES = test system: NCI/ADR-RES
# SK-MEL-28 = test system: SK-MEL-28
# Malme-3M = test system: Malme-3M
# M14 = test system: M14
# TK-10 = test system: TK-10
# HL-60 = test system: HL-60
# ACHN = test system: ACHN
# NCI-H23 = test system: NCI-H23
# KM12 = test system: KM12
# MCF7 = test system: MCF7
# UACC-257 = test system: UACC-257
# SN12C = test system: SN12C
# SK-MEL-2 = test system: SK-MEL-2
# UO-31 = test system: UO-31
# MDA-N = test system: MDA-N
# EKVX = test system: EKVX
# RPMI-8226 = test system: RPMI-8226
# SW-620 = test system: SW-620
# SNB-19 = test system: SNB-19
# HT-29 = test system: HT-29
# SR = test system: SR
# HCT-15 = test system: HCT-15
# OVCAR-4 = test system: OVCAR-4
# CAKI-1 = test system: CAKI-1
# LOX IMVI = test system: LOX IMVI
# IGROV-1 = test system: IGROV-1
# Hs-578T = test system: Hs-578T
# HCC 2998 = test system: HCC 2998
# NCI-H522 = test system: NCI-H522
# MDA-MB-231 = test system: MDA-MB-231
# SNB-75 = test system: SNB-75
# RXF 393 = test system: RXF 393
# T47D = test system: T47D
# UACC-62 = test system: UACC-62
# K562 = test system: K562
# SF-295 = test system: SF-295
# OVCAR-8 = test system: OVCAR-8
# U-251 = test system: U-251
# COLO 205 = test system: COLO 205
structure (smiles),measurement,setting,value
CCCCCN1CCN(c2ncccn2)CC1,GI50,SF-268,> 100 µM (inactive)
same,GI50,OVCAR-5,> 100 µM (inactive)
same,GI50,DU-145,> 100 µM (inactive)
same,GI50,PC-3,> 100 µM (inactive)
same,GI50,A498,> 100 µM (inactive)
same,GI50,786-0,> 100 µM (inactive)
same,GI50,CCRF-CEM,> 100 µM (inactive)
same,GI50,HOP-92,48.6 µM (inactive)
same,GI50,HCT-116,> 100 µM (inactive)
same,GI50,HOP-62,> 100 µM (inactive)
same,GI50,MDA-MB-435,> 100 µM (inactive)
same,GI50,SF-539,> 100 µM (inactive)
same,GI50,OVCAR-3,> 100 µM (inactive)
same,GI50,A549,> 100 µM (inactive)
same,GI50,SK-MEL-5,> 100 µM (inactive)
same,GI50,NCI/ADR-RES,> 100 µM (inactive)
same,GI50,SK-MEL-28,> 100 µM (inactive)
same,GI50,Malme-3M,> 100 µM (inactive)
same,GI50,M14,> 100 µM (inactive)
same,GI50,TK-10,> 100 µM (inactive)
same,GI50,HL-60,> 100 µM (inactive)
same,GI50,ACHN,> 100 µM (inactive)
same,GI50,NCI-H23,> 100 µM (inactive)
same,GI50,KM12,> 100 µM (inactive)
same,GI50,MCF7,> 100 µM (inactive)
same,GI50,UACC-257,> 100 µM (inactive)
same,GI50,SN12C,> 100 µM (inactive)
same,GI50,SK-MEL-2,> 100 µM (inactive)
same,GI50,UO-31,> 100 µM (inactive)
same,GI50,MDA-N,> 100 µM (inactive)
same,GI50,EKVX,> 100 µM (inactive)
same,GI50,RPMI-8226,> 100 µM (inactive)
same,GI50,SW-620,> 100 µM (inactive)
same,GI50,SNB-19,> 100 µM (inactive)
same,GI50,HT-29,> 100 µM (inactive)
same,GI50,SR,> 100 µM (inactive)
same,GI50,HCT-15,> 100 µM
same,GI50,OVCAR-4,> 100 µM (inactive)
same,GI50,CAKI-1,> 100 µM (inactive)
same,GI50,LOX IMVI,> 100 µM (inactive)
same,GI50,IGROV-1,> 100 µM (inactive)
same,GI50,Hs-578T,> 100 µM (inactive)
same,GI50,HCC 2998,> 100 µM (inactive)
same,GI50,NCI-H522,> 100 µM (inactive)
same,GI50,MDA-MB-231,> 100 µM (inactive)
same,GI50,SNB-75,> 100 µM (inactive)
same,GI50,RXF 393,> 100 µM (inactive)
same,GI50,T47D,> 100 µM (inactive)
same,GI50,UACC-62,> 100 µM (inactive)
same,GI50,K562,> 100 µM (inactive)
same,GI50,SF-295,> 100 µM (inactive)
same,GI50,OVCAR-8,> 100 µM (inactive)
same,GI50,U-251,> 100 µM (inactive)
same,GI50,COLO 205,> 100 µM (inactive)
